According to ChEMBL document CHEMBL3045554, “Synthesis and antimicrobial screening of N-(1-methyl-1H-pyrazole-4-carbonyl)-thiourea derivatives” (2012):
Calls of active or inactive are those of the source.

Tests used:
Staphylococcus aureus [1] = assay: Antimicrobial activity against Staphylococcus aureus by microdilution method; format: functional
Pseudomonas aeruginosa [2] = assay: Antimicrobial activity against Pseudomonas aeruginosa 5541 by microdilution method; format: functional
Escherichia coli [3] = assay: Antimicrobial activity against Escherichia coli 637/2007 by microdilution method; format: functional
Bacillus subtilis [4] = assay: Antimicrobial activity against Bacillus subtilis 10.10.2006 by microdilution method; format: functional
Klebsiella pneumoniae [5] = assay: Antimicrobial activity against Klebsiella pneumoniae 126/2007 by microdilution method; format: functional
Acinetobacter baumannii [6] = assay: Antimicrobial activity against Acinetobacter baumannii 15896 by microdilution method; format: functional
Enterococcus faecalis [7] = assay: Antimicrobial activity against Enterococcus faecalis 13773 by microdilution method; format: functional
Escherichia coli [8] = assay: Effect on DNase production in Escherichia coli 637/2007 after 24 hr; format: functional, organism-based
Escherichia coli [9] = assay: Effect on gelatinase production in Escherichia coli 637/2007 after 24 hr by gelatin hydrolysis test; format: functional, organism-based
Pseudomonas aeruginosa [10] = assay: Effect on amylase production in Pseudomonas aeruginosa 5541 after 24 hr by starch hydrolysis assay; format: functional, organism-based
Enterococcus faecalis [11] = assay: Inhibition of lecithinase production in Enterococcus faecalis 13773 after 7 days; format: functional, organism-based
Bacillus subtilis [12] = assay: Effect on lipase production in Bacillus subtilis 10.10.2006 after 7 days; format: functional, organism-based
Klebsiella pneumoniae [13] = assay: Effect on DNase production in Klebsiella pneumoniae 126/2007 after 24 hr; format: functional, organism-based
Enterococcus faecalis [14] = assay: Effect on DNase production in Enterococcus faecalis 13773 after 24 hr; format: functional, organism-based
Staphylococcus aureus [15] = assay: Inhibition of caseinase production in Staphylococcus aureus after 24 hr by casein hydrolysis assay; format: functional, organism-based
Staphylococcus aureus [16] = assay: Effect on DNase production in Staphylococcus aureus after 24 hr; format: functional, organism-based
Bacillus subtilis [17] = assay: Inhibition of lecithinase production in Bacillus subtilis 10.10.2006 after 7 days; format: functional, organism-based
Escherichia coli [18] = assay: Effect on amylase production in Escherichia coli 637/2007 after 24 hr by starch hydrolysis assay; format: functional, organism-based
Enterococcus faecalis [19] = assay: Effect on esculethol production in Enterococcus faecalis 13773 after 24 hr by esculin hydrolysis test; format: functional, organism-based
Acinetobacter baumannii [20] = assay: Inhibition of lecithinase production in Acinetobacter baumannii 15896 after 7 days; format: functional, organism-based
Staphylococcus aureus [21] = assay: Effect on gelatinase production in Staphylococcus aureus after 24 hr by gelatin hydrolysis test; format: functional, organism-based
Klebsiella pneumoniae [22] = assay: Inhibition of lecithinase production in Klebsiella pneumoniae 126/2007 after 7 days; format: functional, organism-based
Acinetobacter baumannii [23] = assay: Effect on lipase production in Acinetobacter baumannii 15896 after 7 days; format: functional, organism-based
Klebsiella pneumoniae [24] = assay: Effect on gelatinase production in Klebsiella pneumoniae 126/2007 after 24 hr by gelatin hydrolysis test; format: functional, organism-based
Acinetobacter baumannii [25] = assay: Effect on gelatinase production in Acinetobacter baumannii 15896 after 24 hr by gelatin hydrolysis test; format: functional, organism-based
Acinetobacter baumannii [26] = assay: Inhibition of caseinase production in Acinetobacter baumannii 15896 after 24 hr by casein hydrolysis assay; format: functional, organism-based
Escherichia coli [27] = assay: Inhibition of lecithinase production in Escherichia coli 637/2007 after 7 days; format: functional, organism-based
Klebsiella pneumoniae [28] = assay: Effect on esculethol production in Klebsiella pneumoniae 126/2007 after 24 hr by esculin hydrolysis test; format: functional, organism-based
Acinetobacter baumannii [29] = assay: Effect on amylase production in Acinetobacter baumannii 15896 after 24 hr by starch hydrolysis assay; format: functional, organism-based
Pseudomonas aeruginosa [30] = assay: Effect on esculethol production in Pseudomonas aeruginosa 5541 after 24 hr by esculin hydrolysis test; format: functional, organism-based
Staphylococcus aureus [31] = assay: Inhibition of lecithinase production in Staphylococcus aureus after 7 days; format: functional, organism-based
Pseudomonas aeruginosa [32] = assay: Inhibition of caseinase production in Pseudomonas aeruginosa 5541 after 24 hr by casein hydrolysis assay; format: functional, organism-based
Bacillus subtilis [33] = assay: Inhibition of caseinase production in Bacillus subtilis 10.10.2006 after 24 hr by casein hydrolysis assay; format: functional, organism-based
Escherichia coli [34] = assay: Inhibition of caseinase production in Escherichia coli 637/2007 after 24 hr by casein hydrolysis assay; format: functional, organism-based
Enterococcus faecalis [35] = assay: Effect on lipase production in Enterococcus faecalis 13773 after 7 days; format: functional, organism-based
Pseudomonas aeruginosa [36] = assay: Effect on lipase production in Pseudomonas aeruginosa 5541 after 7 days; format: functional, organism-based
Staphylococcus aureus [37] = assay: Effect on lipase production in Staphylococcus aureus after 7 days; format: functional, organism-based
Klebsiella pneumoniae [38] = assay: Effect on lipase production in Klebsiella pneumoniae 126/2007 after 7 days; format: functional, organism-based
Bacillus subtilis [39] = assay: Effect on amylase production in Bacillus subtilis 10.10.2006 after 24 hr by starch hydrolysis assay; format: functional, organism-based
Pseudomonas aeruginosa [40] = assay: Effect on gelatinase production in Pseudomonas aeruginosa 5541 after 24 hr by gelatin hydrolysis test; format: functional, organism-based
Escherichia coli [41] = assay: Effect on esculethol production in Escherichia coli 637/2007 after 24 hr by esculin hydrolysis test; format: functional, organism-based
Bacillus subtilis [42] = assay: Effect on esculethol production in Bacillus subtilis 10.10.2006 after 24 hr by esculin hydrolysis test; format: functional, organism-based
Bacillus subtilis [43] = assay: Effect on DNase production in Bacillus subtilis 10.10.2006 after 24 hr; format: functional, organism-based
Staphylococcus aureus [44] = assay: Effect on esculethol production in Staphylococcus aureus after 24 hr by esculin hydrolysis test; format: functional, organism-based
Pseudomonas aeruginosa [45] = assay: Effect on DNase production in Pseudomonas aeruginosa 5541 after 24 hr; format: functional, organism-based
Enterococcus faecalis [46] = assay: Effect on amylase production in Enterococcus faecalis 13773 after 24 hr by starch hydrolysis assay; format: functional, organism-based
Pseudomonas aeruginosa [47] = assay: Inhibition of lecithinase production in Pseudomonas aeruginosa 5541 after 7 days; format: functional, organism-based
Acinetobacter baumannii [48] = assay: Effect on DNase production in Acinetobacter baumannii 15896 after 24 hr; format: functional, organism-based
Klebsiella pneumoniae [49] = assay: Effect on amylase production in Klebsiella pneumoniae 126/2007 after 24 hr by starch hydrolysis assay; format: functional, organism-based
Enterococcus faecalis [50] = assay: Inhibition of caseinase production in Enterococcus faecalis 13773 after 24 hr by casein hydrolysis assay; format: functional, organism-based
Staphylococcus aureus [51] = assay: Effect on amylase production in Staphylococcus aureus after 24 hr by starch hydrolysis assay; format: functional, organism-based
Klebsiella pneumoniae [52] = assay: Inhibition of caseinase production in Klebsiella pneumoniae 126/2007 after 24 hr by casein hydrolysis assay; format: functional, organism-based
Enterococcus faecalis [53] = assay: Effect on gelatinase production in Enterococcus faecalis 13773 after 24 hr by gelatin hydrolysis test; format: functional, organism-based
Acinetobacter baumannii [54] = assay: Effect on esculethol production in Acinetobacter baumannii 15896 after 24 hr by esculin hydrolysis test; format: functional, organism-based
Escherichia coli [55] = assay: Effect on lipase production in Escherichia coli 637/2007 after 7 days; format: functional, organism-based
Bacillus subtilis [56] = assay: Effect on gelatinase production in Bacillus subtilis 10.10.2006 after 24 hr by gelatin hydrolysis test; format: functional, organism-based

Cc1cccc(NC(=S)NC(=O)c2cnn(C)c2)c1
> 1000 µg/mL: MIC (Staphylococcus aureus [1]) | MIC (Pseudomonas aeruginosa [2]) | MIC (Escherichia coli [3]) | MIC (Acinetobacter baumannii [6]) | MIC (Enterococcus faecalis [7])
1000 µg/mL: MIC (Bacillus subtilis [4]) | MIC (Klebsiella pneumoniae [5])

Cc1ccc(NC(=S)NC(=O)c2cnn(C)c2)cc1
> 1000 µg/mL: MIC (Staphylococcus aureus [1]) | MIC (Pseudomonas aeruginosa [2]) | MIC (Escherichia coli [3]) | MIC (Bacillus subtilis [4]) | MIC (Klebsiella pneumoniae [5]) | MIC (Acinetobacter baumannii [6]) | MIC (Enterococcus faecalis [7])

CC(C)c1ccccc1NC(=S)NC(=O)c1cnn(C)c1
1000 µg/mL: MIC (Klebsiella pneumoniae [5])
> 1000 µg/mL: MIC (Staphylococcus aureus [1]) | MIC (Pseudomonas aeruginosa [2]) | MIC (Escherichia coli [3]) | MIC (Bacillus subtilis [4]) | MIC (Acinetobacter baumannii [6]) | MIC (Enterococcus faecalis [7])

CCCc1ccc(NC(=S)NC(=O)c2cnn(C)c2)cc1
> 1000 µg/mL: MIC (Staphylococcus aureus [1]) | MIC (Pseudomonas aeruginosa [2]) | MIC (Escherichia coli [3]) | MIC (Bacillus subtilis [4]) | MIC (Klebsiella pneumoniae [5]) | MIC (Acinetobacter baumannii [6]) | MIC (Enterococcus faecalis [7])

Cn1cc(C(=O)NC(=S)Nc2ccc(C(C)(C)C)cc2)cn1
> 1000 µg/mL: MIC (Staphylococcus aureus [1]) | MIC (Pseudomonas aeruginosa [2]) | MIC (Escherichia coli [3]) | MIC (Bacillus subtilis [4]) | MIC (Klebsiella pneumoniae [5]) | MIC (Acinetobacter baumannii [6]) | MIC (Enterococcus faecalis [7])

CCCc1ccccc1NC(=S)NC(=O)c1cnn(C)c1
250 µg/mL: MIC (Acinetobacter baumannii [6]) | MIC (Enterococcus faecalis [7])
active: inhibition (Escherichia coli [34])
500 µg/mL: MIC (Staphylococcus aureus [1]) | MIC (Bacillus subtilis [4]) | MIC (Klebsiella pneumoniae [5])
1000 µg/mL: MIC (Pseudomonas aeruginosa [2]) | MIC (Escherichia coli [3])
inactive: Activity (Escherichia coli [8]) | Activity (Escherichia coli [9]) | Activity (Pseudomonas aeruginosa [10]) | inhibition (Enterococcus faecalis [11]) | Activity (Bacillus subtilis [12]) | Activity (Klebsiella pneumoniae [13]) | Activity (Enterococcus faecalis [14]) | inhibition (Staphylococcus aureus [15]) | Activity (Staphylococcus aureus [16]) | inhibition (Bacillus subtilis [17]) | Activity (Escherichia coli [18]) | Activity (Enterococcus faecalis [19]) | inhibition (Acinetobacter baumannii [20]) | Activity (Staphylococcus aureus [21]) | inhibition (Klebsiella pneumoniae [22]) | Activity (Acinetobacter baumannii [23]) | Activity (Klebsiella pneumoniae [24]) | Activity (Acinetobacter baumannii [25]) | inhibition (Acinetobacter baumannii [26]) | inhibition (Escherichia coli [27]) | Activity (Klebsiella pneumoniae [28]) | Activity (Acinetobacter baumannii [29]) | Activity (Pseudomonas aeruginosa [30]) | inhibition (Staphylococcus aureus [31]) | inhibition (Pseudomonas aeruginosa [32]) | inhibition (Bacillus subtilis [33]) | Activity (Enterococcus faecalis [35]) | Activity (Pseudomonas aeruginosa [36]) | Activity (Staphylococcus aureus [37]) | Activity (Klebsiella pneumoniae [38]) | Activity (Bacillus subtilis [39]) | Activity (Pseudomonas aeruginosa [40]) | Activity (Escherichia coli [41]) | Activity (Bacillus subtilis [42]) | Activity (Bacillus subtilis [43]) | Activity (Staphylococcus aureus [44]) | Activity (Pseudomonas aeruginosa [45]) | Activity (Enterococcus faecalis [46]) | inhibition (Pseudomonas aeruginosa [47]) | Activity (Acinetobacter baumannii [48]) | Activity (Klebsiella pneumoniae [49]) | inhibition (Enterococcus faecalis [50]) | Activity (Staphylococcus aureus [51]) | inhibition (Klebsiella pneumoniae [52]) | Activity (Enterococcus faecalis [53]) | Activity (Acinetobacter baumannii [54]) | Activity (Escherichia coli [55]) | Activity (Bacillus subtilis [56])
